Measurements: patent publication US11198900B2, “Nucleic acid-based linkers for detecting and measuring interactions” (Children's Medical Center Corporation, priority 2014, dated 2021)

Experiments:
streptavidin [1] = molecular target: T1, streptavidin (Streptomyces avidinii, UniProt P22629); experiment: DNA nanoswitch gel electrophoresis, biotin-streptavidin kinetics (Example 2, FIG. 7 and 8); format: binding; details: for dissociation time: 150 mM physiological salt
T1 construct: purchased Rockland
Description: FIG. 7. […] (A) The DNA nanoswitch has two distinct states, depending on the binding of a receptor-ligand pair, that can be distinguished by gel electrophoresis, (B) In the presence of excess ligand, a nanoswitch in the bound state will become trapped in the unbound state upon dissociation. […] The amount of looped construct is quantified from the gel to determine the kinetics of dissociation.
FIG. 7D, for example, illustrates the formation of looped constructs having two biotins in the presence of streptavidin (t=0).
Linkers were designed according to protocols for long (2580 bp) and short (600 bp) loops as described herein. […] All other oligos were the same as those used previously. Briefly, looped constructs were made by mixing a long single-stranded DNA (M13mp18, in this case) with over 121 oligos that are complementary along its length. […] The constructs come together by self-assembly with a temperature ramp heating and cooling them.
Recognizing that the nanoswitch conformation informs the receptor-ligand binding state (bound or unbound), and that the conformation can be observed on a gel, an assay to measure bulk interaction kinetics was developed. The assay, conceptually shown in FIG. 7, proceeds as follows: 1) form a looped nucleic acid (DNA) construct that relies on a receptor and a ligand being bound to each other, 2) quench the interaction between the receptor and the ligand, for example, with excess receptor or ligand to prevent rebinding following dissociation, 3) monitor the relative amount of looped construct over time to measure kinetics.
Linear double-stranded DNA constructs 7249 base pairs (bp) in length were self-assembled by combining the single-stranded M13 bacteriophage genome with 121 complementary oligos. (See also Halvorsen K et al., 2011.). Two of the oligos were labeled with single biotins and placed 2580 bp from each other, such that interaction with streptavidin induced the formation of a 2580 bp loop in the structure. […] The entire array of 16 conditions with five time points each plus controls was then run on a single 96 lane agarose gel (FIG. 8).
The gel analysis tool in ImageJ was used to measure the integrated intensity of the band containing looped construct, and this quantity was normalized by the integrated intensity of a reference band in the same lane from a DNA ladder, which was added to the construct prior to starting experiments. Individual time constants for each experimental condition were determined by fitting a single exponential decay to the data using an error weighted least squares fitting.

streptavidin [2] = molecular target: T1, streptavidin; experiment: DNA nanoswitch gel electrophoresis, biotin-streptavidin on-rate and off-rate (Example 3); format: binding
Description: This construct used biotinylated versions of two oligonucleotides (var 4 and var 8), which were used in 4× molar excess to the scaffold, while all other oligonucleotides were used in a 10× molar excess. […] The final DNA construct was then diluted 100× from its original concentration of ˜16 nM (to 160 pM), and mixed in equal volumes with streptavidin (Rockland) at 6 nM nominal concentration to form the loops, yielding final nominal concentrations of ˜80 pM and 3 nM, respectively.
The 25° C. experiment was performed at room temperature, the 4° C. experiment was performed in a cold room, and the 37° C. and 50° C. experiments were performed using a thermal cycler. […] Actual concentrations used to determine the on-rates were measured using spectrophotometry and a HABA assay to determine streptavidin activity.
Off-rate measurements were performed by forming looped construct as described above, and letting the solution sit for at least 24 hours to allow the system to reach equilibrium. […] The 4° C. condition was done in a refrigerator, the 25° C. sample was done in a water bath, and the 37° C. and 50° C. temperatures were done in a thermal cycler. To run all the samples on a single gel, the quenching times were determined relative to the predetermined gel running time.
The amount of material in each gel band was quantified by analyzing the scanned gel images with the gel analysis tool in the freely available ImageJ software package. Using rectangular regions of interest that just capture the width of the gel bands, this toolbox produces intensity profiles whose area can be measured to quantify the total brightness in each band. We applied the same rectangular window size to each lane within a single gel. In many gels the highest molecular weight band of the added ladder was used as a normalizing reference lane. This relaxed the constraints of pipetting perfectly across all lanes. • 2) All multistate (with 5 bands) gels were analyzed as follows
Error bars were produced based on this analysis, and all fitting procedures used an error weighted least squares fit.
The time evolution of DNA nanoswitch states are modeled using multistep reaction kinetics. On rates are modeled as a two-step process: Unbound Linear→Singly Bound Linear→Looped
Step 1 represents the binding of a free receptor in solution to a ligand on the scaffold (yielding the solution on-rate), Step 2 represents the subsequent binding of this receptor to another ligand on the same scaffold to form a loop (yielding the loop-closure rate).
We additionally used Eyring analysis to fit the temperature dependence of the kinetic rates: […]

Neutravidin = Neutravidin (Gallus gallus, UniProt P02701); experiment: DNA nanoswitch gel electrophoresis, biotin with avidin and Neutravidin; format: binding; details: relative to avidin
Description: Preparations with avidin and neutravidin were prepared in the same way, but protein concentrations were sometimes altered to enable on-rate measurements over a similar time scale as the streptavidin experiments.

streptavidin [3] = molecular target: T1, streptavidin; experiment: DNA nanoswitch gel electrophoresis, desthiobiotin-streptavidin off-rate; format: binding
Description: Desthiobiotin experiments were conducted in a similar manner as the biotin experiments with slight modifications. […] The off-rate of the desthiobiotin interaction is much faster than the typical 100 minute gel run time. Noting that once a loop opens in the gel, the reptation of the DNA prevents the loop from closing again, we ran samples for different amounts of time in the gel at 15 V/cm and 4° C., and quantified the fraction looped as a function of running time. In addition to allowing the determination of the desthiobiotin-streptavidin off rate, this gel also allowed us to determine the minimum amount of time required to achieve separation of the looped and unlooped bands in the gel. This enabled the use of the standard quenching technique for measuring desthiobiotin off-rates as described in the previous section; these gels were run at 15 V/cm for 10 minutes in pre-chilled electrophoresis buffer.

[4] = tested on: disulfide bond (var 4-S-S-var 8); experiment: DNA nanoswitch disulfide bond reduction; details: 10 μM TCEP, room temperature (25° C.)
Description: This construct was created in 3 steps. 1) Var 4 and a truncated version of var 8 with a 3′ and a 5′ thiol respectively, were reduced in 50 mM TCEP (BondBreaker Thermo Scientific). 2) These two oligonucleotides were linked by a disulfide. 3) The disulfide-bridged oligonucleotides were hybridized onto the DNA nanoswitch. • 1) To reduce the thiols on the oligonucleotides they were incubated in 50 mM TCEP for 1 hour at RT. • 2) Equal volumes of the two oligonucleotide-TCEP mixtures were then combined. The TCEP was removed using a QIAGEN nucleotide-removal kit. The oligonucleotides were then allowed to form disulfides in the absence of reducing agent in PBS for 1 hour before running the products on a precast 4-20% gradient polyacrylamide TBE gel. As the oligonucleotides were different sizes (60 and 30 nt) the appropriate hetero dimer could be easily identified and purified using electroelution as previously described^5. • 3) The var 4-S-S-var 8 was used instead of the normal var 4 and var 8. This was annealed onto the linear M13 backbone at a 1:1 ratio and was added along with the other oligonucleotides at the beginning of the annealing. This yielded loops with a disulfide bridging variable regions 4 and 8.
With these loops in hand we could observe loop opening as a result of TCEP reduction of the disulfide bond. […]

[5] = calculated from on-rate and off-rate

T1 sequence (P22629 25-183): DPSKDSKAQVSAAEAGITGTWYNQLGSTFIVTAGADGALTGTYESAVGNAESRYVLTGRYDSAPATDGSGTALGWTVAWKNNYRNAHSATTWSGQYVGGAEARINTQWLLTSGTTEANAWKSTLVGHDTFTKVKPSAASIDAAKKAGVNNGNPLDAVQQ
Chain of Neutravidin (P02701 25-152): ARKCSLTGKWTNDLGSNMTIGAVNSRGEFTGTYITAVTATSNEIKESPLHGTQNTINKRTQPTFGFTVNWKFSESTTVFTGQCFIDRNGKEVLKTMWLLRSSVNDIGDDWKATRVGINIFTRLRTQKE

Compound: O=C(O)CCCC[C@@H]1SC[C@@H]2NC(=O)N[C@@H]21 [biotin]
- change of off-rate with salt (streptavidin [1]; 5 mM to 500 mM at a given temperature): less than 2 fold
- dissociation time (streptavidin [1]; 25° C.): 148 ± 10 h
- dissociation time (streptavidin [1]; 37° C.): 11.2 ± 3 h
- variation of off-rate with temperature (streptavidin [1]; 4° C. to 50° C. at a given salt concentration): over 100 fold
- off-rates as fast as (streptavidin [1]; high temperature): 40 min
- on-rate (streptavidin [2]; 150 mM salt, room temperature): 4.0±0.7×10^6 M^−1s^−1
- variation of dissociation kinetics over temperature range (streptavidin [2]; 4-50° C.): ~1,000 fold
- variation of dissociation kinetics over salt range (streptavidin [2]; 25-500 mM): about 2 fold
- equilibrium enthalpy change, ΔH (streptavidin [2]; [5]): 26.01 ± 0.05 kcal/mol
- equilibrium free energy change, ΔG^0 (streptavidin [2]; [5]): -17.1 ± 0.1 kcal/mol
- dissociation time (streptavidin [2]; physiological salt conditions, 25° C.): 9.7 ± 0.4 days
- affinity of Neutravidin for biotin, weaker than avidin's (Neutravidin): 20 times

Compound: C[C@@H]1NC(=O)N[C@@H]1CCCCCC(=O)O [desthiobiotin]
- off-rate (streptavidin [3]; 4° C.): 35.3 ± 7.5 min
- off-rate (streptavidin [3]; room temperature): 8.6 ± 1.2 min

Compound: O=C(O)CCP(CCC(=O)O)CCC(=O)O [TCEP]
- time constant of disulfide bond reduction [4]: 2.6±0.4 weeks
